PubChem BioAssay AID256 (DTP/NCI, 2004)
Where “and” joins values, the source holds several entries; their conditions need not be identical. Equal entries are not always repeated. Toxic doses and inconclusive results are not listed. How the source made its calls: active means survival T/C of 150% or more; inactive means T/C below 125% in these data.

System: CD2F1 mice, L1210 leukemia ip, survival T/C
Experiment: NCI In Vivo Anticancer Drug Screen. Data for tumor model L1210 Leukemia (intraperitoneal) in CD2F1 (CDF1) mice
Conditions: endpoint: mean survival time, higher = longer survival
Method in brief: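 Activity against a transplanted murine tumor was judged by comparing the compound group with a vehicle group. The outcome in the treated animals was divided by that in the controls.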

[1] = dose: 100.0 mg/kg/injection, schedule: Q01DX001 (ip), vehicle: saline with Tween-80
[2] = dose: 200.0 mg/kg/injection, schedule: Q01DX001 (ip), vehicle: saline with Tween-80
[3] = dose: 400.0 mg/kg/injection, schedule: Q01DX001 (ip), vehicle: saline with Tween-80
[4] = dose: 100.0 mg/kg/injection, schedule: Q04DX003 (ip), vehicle: saline with Tween-80
[5] = dose: 200.0 mg/kg/injection, schedule: Q04DX003 (ip), vehicle: saline with Tween-80
[6] = dose: 400.0 mg/kg/injection, schedule: Q04DX003 (ip), vehicle: saline with Tween-80
[7] = dose: 5.0 mg/kg/injection, schedule: Q01DX001 (ip), vehicle: saline
[8] = dose: 10.0 mg/kg/injection, schedule: Q01DX001 (ip), vehicle: saline
[9] = dose: 20.0 mg/kg/injection, schedule: Q01DX001 (ip), vehicle: saline
[10] = dose: 100.0 mg/kg/injection, schedule: Q01DX009 (ip), vehicle: saline with Tween-80
[11] = dose: 200.0 mg/kg/injection, schedule: Q01DX009 (ip), vehicle: saline with Tween-80
[12] = dose: 400.0 mg/kg/injection, schedule: Q01DX009 (ip), vehicle: saline with Tween-80
[13] = dose: 200.0 mg/kg/injection, schedule: Q01DX009 (ip), vehicle: Klucel (hydroxypropylcellulose) (HPC)
[14] = dose: 400.0 mg/kg/injection, schedule: Q01DX009 (ip), vehicle: Klucel (hydroxypropylcellulose) (HPC)
[15] = dose: 100.0 mg/kg/injection, schedule: Q04DX002 (ip), vehicle: saline with Tween-80
[16] = dose: 400.0 mg/kg/injection, schedule: Q04DX002 (ip), vehicle: saline with Tween-80
[17] = dose: 12.5 mg/kg/injection, schedule: Q04DX003 (ip), vehicle: other
[18] = dose: 25.0 mg/kg/injection, schedule: Q04DX003 (ip), vehicle: other
[19] = dose: 50.0 mg/kg/injection, schedule: Q04DX003 (ip), vehicle: other

Measured: T/C

CCCCCCCCCCCCCCCCC(C)(O)C#CC(C)(O)CCCCCCCCCCCCCCCC (configuration not stated)
inactive: dose: 100.0 mg/kg/injection, schedule: Q01DX005 (ip), vehicle: other 97 % of control | dose: 200.0 mg/kg/injection, schedule: Q01DX005 (ip), vehicle: other 97 % of control | dose: 400.0 mg/kg/injection, schedule: Q01DX005 (ip), vehicle: other 101 % of control

c1ccc(CNc2nnnc3ccccc23)cc1
inactive: [1] 100 % of control | [2] 88 % of control | [3] 94 % of control

CC(=O)C(C)(C)N(C)c1ccccc1
inactive: dose: 100.0 mg/kg/injection, schedule: Q04DX003 (ip), vehicle: saline 97 % of control | dose: 200.0 mg/kg/injection, schedule: Q04DX003 (ip), vehicle: saline 93 % of control | dose: 400.0 mg/kg/injection, schedule: Q04DX003 (ip), vehicle: saline 93 % of control

CN(C)C(=O)Nc1cccc(OP(=O)(N(C)C)N(C)C)c1
inactive: [4] 103 % of control | [5] 97 % of control | [6] 99 % of control

COc1ccc(C(=O)CC(C#N)c2ccc(OC)c(OC)c2)cc1OC (configuration not stated)
inactive: [4] 98 % of control | [5] 101 % of control | [6] 98 % of control

C/C(CCC(CC(=O)O)C(C)C)=N\NC(N)=O (configuration not stated)
inactive: [4] 97 % of control | [5] 97 % of control | [6] 103 % of control

Cc1cccc(C)c1OC(=O)Cl
inactive: [7] 98 % of control | [8] 97 % of control | [9] 97 % of control | dose: 40.0 mg/kg/injection, schedule: Q01DX001 (ip), vehicle: saline 97 % of control

CC(C)(O)CN
inactive: dose: 25.0 mg/kg/injection, schedule: Q01DX009 (ip), vehicle: saline with Tween-80 95 % of control | dose: 50.0 mg/kg/injection, schedule: Q01DX009 (ip), vehicle: saline with Tween-80 98 % of control | [10] 91 % of control

Nc1ncnc2c1ccn2C1OC(CO)C2[O][Sn]([c]3ccccc3)([c]3ccccc3)[O]C21 (configuration not stated)
inactive: dose: 0.78 mg/kg/injection, schedule: Q01DX005 (ip), vehicle: other 110 % of control | dose: 1.56 mg/kg/injection, schedule: Q01DX005 (ip), vehicle: other 113 % of control | dose: 3.13 mg/kg/injection, schedule: Q01DX005 (ip), vehicle: other 111 % of control | dose: 6.25 mg/kg/injection, schedule: Q01DX005 (ip), vehicle: other 90 % of control

O=C(O)c1cnc(Cl)c(Br)c1
inactive: [1] 103 % of control | [4] 97 % of control | [2] 93 % of control | [5] 93 % of control | [3] 98 % of control | [6] 93 % of control

COc1ccc(OC)c(NC(=O)c2cccc([N+](=O)[O-])c2)c1
inactive: [10] 90 % of control and 103 % of control | [11] 92 % of control and 93 % of control | [12] 89 % of control and 95 % of control

Cc1ccc(NC(=O)Nc2ccc(Nc3ccccc3)cc2)c([N+](=O)[O-])c1
inactive: dose: 100.0 mg/kg/injection, schedule: Q01DX009 (ip), vehicle: Klucel (hydroxypropylcellulose) (HPC) 89 % of control | [13] 92 % of control | [14] 89 % of control

CCOC(=O)C1(C(=O)OCC)CCC(O)N1C(=O)c1ccccc1[N+](=O)[O-] (configuration not stated)
inactive: dose: 100.0 mg/kg/injection, schedule: Q01DX001 (ip), vehicle: Klucel (hydroxypropylcellulose) (HPC) 100 % of control | dose: 200.0 mg/kg/injection, schedule: Q01DX001 (ip), vehicle: Klucel (hydroxypropylcellulose) (HPC) 96 % of control | dose: 400.0 mg/kg/injection, schedule: Q01DX001 (ip), vehicle: Klucel (hydroxypropylcellulose) (HPC) 92 % of control

CCC1Cc2c([nH]c(=O)n(C)c2=O)O1 (configuration not stated)
inactive: dose: 100.0 mg/kg/injection, schedule: Q01DX001 (ip), vehicle: saline 97 % of control | dose: 200.0 mg/kg/injection, schedule: Q01DX001 (ip), vehicle: saline 97 % of control | dose: 400.0 mg/kg/injection, schedule: Q01DX001 (ip), vehicle: saline 97 % of control

CCNCc1cc(Nc2nc(NC3CCC(N(C)C)CC3)c3ccccc3n2)ccc1OC (configuration not stated)
inactive: [7] 97 % of control | dose: 5.0 mg/kg/injection, schedule: Q01DX009 (ip), vehicle: saline 96 % of control | [8] 92 % of control | dose: 10.0 mg/kg/injection, schedule: Q01DX009 (ip), vehicle: saline 96 % of control | [9] 97 % of control | dose: 20.0 mg/kg/injection, schedule: Q01DX009 (ip), vehicle: saline 107 % of control

O.O=P(O)(O)O.[NH-]C1CCCCC1[NH-].[Pt+2] (configuration not stated)
inactive: dose: 50.0 mg/kg/injection, schedule: Q04DX003 (ip), vehicle: water 120 % of control

Cc1cc(=O)c(C(=O)NC/C(C#N)=C\c2ccccc2)c(C)[nH]1
inactive: [15] 93 % of control | [16] 100 % of control

CN(C)C/C(=C\c1ccccc1)C(=O)c1ccccc1
inactive: [17] 98 % of control | [18] 97 % of control | [19] 101 % of control

Cc1ccc(S(=O)(=O)N/N=C\c2cccnc2)cc1
inactive: [17] 101 % of control | [18] 101 % of control | [19] 97 % of control | dose: 100.0 mg/kg/injection, schedule: Q04DX003 (ip), vehicle: other 101 % of control | dose: 200.0 mg/kg/injection, schedule: Q04DX003 (ip), vehicle: other 97 % of control | dose: 400.0 mg/kg/injection, schedule: Q04DX003 (ip), vehicle: other 98 % of control

CCC(C1=NC(C)(C)CC(C)O1)c1ccccc1 (configuration not stated) (tested in a mixture with another compound)
inactive: [10] 102 % of control | [11] 93 % of control

C[C@]12CCC(=O)C=C1CC[C@@H]1[C@@H]2[C@@H](O)C[C@@]2(C)[C@H]1CC[C@]2(O)C(=O)COC(=O)COCC(=O)O
inactive: dose: 100.0 mg/kg/injection, schedule: Q01DX001 (sc), vehicle: steriod suspending solution 106 % of control | dose: 200.0 mg/kg/injection, schedule: Q01DX001 (sc), vehicle: steriod suspending solution 108 % of control | dose: 400.0 mg/kg/injection, schedule: Q01DX001 (sc), vehicle: steriod suspending solution 103 % of control

O=C(CC(O)(C(F)(F)F)C(F)(F)F)c1ccc(Cl)c2ccccc12
inactive: dose: 100.0 mg/kg/injection, schedule: Q01DX001 (ip), vehicle: other 102 % of control | dose: 200.0 mg/kg/injection, schedule: Q01DX001 (ip), vehicle: other 100 % of control | dose: 400.0 mg/kg/injection, schedule: Q01DX001 (ip), vehicle: other 96 % of control

CCOC(=O)C1C2CCC(O2)C1C#N (configuration not stated)
inactive: dose: 25.0 mg/kg/injection, schedule: Q04DX002 (ip), vehicle: saline with Tween-80 98 % of control | dose: 50.0 mg/kg/injection, schedule: Q04DX002 (ip), vehicle: saline with Tween-80 98 % of control | [15] 98 % of control

C=C(C)COc1c(C)cc(C)cc1[N+](=O)[O-]
inactive: [10] 98 % of control | [11] 100 % of control | [12] 104 % of control

CN(C)C(=O)OCC[N+](C)(C)CCCCCCCCCC[N+](C)(C)CCOC(=O)N(C)C
inactive: dose: 1.25 mg/kg/injection, schedule: Q04DX003 (ip), vehicle: saline 103 % of control | dose: 2.5 mg/kg/injection, schedule: Q04DX003 (ip), vehicle: saline 97 % of control

Nc1ncn[nH]1
inactive: [13] 95 % of control | [14] 106 % of control

CNC(=S)/N=c1/scc(C)n1C
inactive: [15] 91 % of control | dose: 200.0 mg/kg/injection, schedule: Q04DX002 (ip), vehicle: saline with Tween-80 91 % of control | [16] 111 % of control

O=C1NC(CN2CCCCC2)C(=O)NC1CN1CCCCC1 (configuration not stated)
inactive: dose: 3.13 mg/kg/injection, schedule: Q01DX009 (ip), vehicle: water 98 % of control | dose: 6.25 mg/kg/injection, schedule: Q01DX009 (ip), vehicle: water 98 % of control | dose: 12.5 mg/kg/injection, schedule: Q01DX009 (ip), vehicle: water 105 % of control | dose: 25.0 mg/kg/injection, schedule: Q01DX009 (ip), vehicle: water 103 % of control | dose: 50.0 mg/kg/injection, schedule: Q01DX009 (ip), vehicle: water 98 % of control | dose: 100.0 mg/kg/injection, schedule: Q01DX009 (ip), vehicle: water 105 % of control
